Measured values taken from patent US10301280B2 (Plexxikon Inc., priority 2012, dated 2019).

Key:
[1] = test system: BaF3-FL KIT D816V or BaF3-FL KIT V560G/D816V cell line; assay: Cell-based assays of c-Kit mutant kinase activity (cell growth, ATPlite); conditions: at least one of the c-kit cell assays of Example 26
In short: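 BaF3 cells dependent on full-length human KIT (D816V or V560G/D816V) seeded at 1×10^4 cells/well in RPMI with 10% FBS. Eight-point 1:3 dilutions from 10 μM top final (0.2% DMSO), 3 days at 37° C., 5% CO2. ATPlite luminescence gave IC50.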

c-kit mutant D816V = c-kit mutant D816V (Homo sapiens (Human), UniProt P10721, D816V/DEL694-753); assay: c-Kit mutant D816V biochemical assay (AlphaScreen); conditions: c-kit D816V biochemical inhibitory activity
c-kit mutant D816V, sequence (P10721 other isoform, or with tags, fused parts or gaps D816V/del 694-753): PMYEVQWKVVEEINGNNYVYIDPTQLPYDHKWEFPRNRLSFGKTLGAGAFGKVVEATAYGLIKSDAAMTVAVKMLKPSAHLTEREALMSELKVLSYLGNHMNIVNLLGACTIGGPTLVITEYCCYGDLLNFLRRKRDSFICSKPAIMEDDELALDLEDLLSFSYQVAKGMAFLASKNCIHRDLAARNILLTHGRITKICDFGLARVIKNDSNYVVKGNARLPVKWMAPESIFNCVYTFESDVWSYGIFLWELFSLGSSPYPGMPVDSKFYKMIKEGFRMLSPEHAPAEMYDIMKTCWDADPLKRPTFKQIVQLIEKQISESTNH
In short: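 His-tagged c-Kit D816V kinase domain (551-934, Δ694-753, E. coli) phosphorylating 30 nM biotin-(E4Y)10 at 10 μM ATP in HEPES pH 7.2 with Mg/Mn, 5% DMSO, 30 min at room temperature. PY20-acceptor/streptavidin-donor AlphaScreen detection after EDTA stop. IC50 from 8-point 1:3 titration.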

| Structure (SMILES) | IC50 [1] [µM] | IC50 (c-kit mutant D816V) [µM] |
| --- | --- | --- |
| Cc1n[nH]c(C(=O)Nc2cnc3[nH]c(-c4cccc(N(C)C)c4)cc3c2)c1C [P-2064, N-[2-[3-(dimethylamino)phenyl]-1H-pyrrolo[2,3-b]pyridin-5-yl]-3,4-dimethyl-1H-pyrazole-5-carboxamide] | < 10 | 0.0001 to 1 |
| Cc1n[nH]c(C(=O)Nc2cnc3[nH]c(-c4cccc(N5CCN(C(=O)C6CC6)CC5)c4)cc3c2)c1C [P-2118, N-[2-[3-[4-(cyclopropanecarbonyl)piperazin-1-yl]phenyl]-1H-pyrrolo[2,3-b]pyridin-5-yl]-3,4-dimethyl-1H-pyrazole-5-carboxamide] | < 10 | 0.0001 to 1 |
| Cc1cc(C(=O)Nc2cnc3[nH]c(-n4cccn4)cc3c2)[nH]n1 [P-2116, 3-methyl-N-(2-pyrazol-1-yl-1H-pyrrolo[2,3-b]pyridin-5-yl)-1H-pyrazole-5-carboxamide] | < 10 | 1 to 10 |
| Cc1n[nH]c(C(=O)Nc2cnc3[nH]c(C4=CCN(C(=O)C(O)CO)CC4)cc3c2)c1C (stereo not drawn) [P-2074, N-[2-[1-(2,3-dihydroxypropanoyl)-3,6-dihydro-2H-pyridin-4-yl]-1H-pyrrolo[2,3-b]pyridin-5-yl]-3,4-dimethyl-1H-pyrazole-5-carboxamide] | < 10 | 0.0001 to 1 |
| Cc1[nH]nc(C(=O)Nc2cnc3[nH]c(-c4ccc(N5CCOCC5)cc4)cc3c2)c1C [P-2059, 4,5-dimethyl-N-[2-(4-morpholinophenyl)-1H-pyrrolo[2,3-b]pyridin-5-yl]-1H-pyrazole-3-carboxamide] | < 10 | 0.0001 to 1 |
| Cc1n[nH]c(C(=O)Nc2cnc3[nH]c(-c4ccccc4)cc3c2)c1C [P-2007, 3,4-dimethyl-N-(2-phenyl-1H-pyrrolo[2,3-b]pyridin-5-yl)-1H-pyrazole-5-carboxamide] | < 10 | 0.0001 to 1 |
| CC(=O)N1CC=C(c2cc3cc(NC(=O)c4[nH]nc(C)c4Cl)cnc3[nH]2)CC1 [P-2061, N-[2-(1-acetyl-3,6-dihydro-2H-pyridin-4-yl)-1H-pyrrolo[2,3-b]pyridin-5-yl]-4-chloro-3-methyl-1H-pyrazole-5-carboxamide] | < 10 | 0.0001 to 1 |
| CNC(=O)c1ccc(-c2cc3cc(NC(=O)c4[nH]nc(C)c4C)cnc3[nH]2)cc1 [P-2067, 3,4-dimethyl-N-[2-[4-(methylcarbamoyl)phenyl]-1H-pyrrolo[2,3-b]pyridin-5-yl]-1H-pyrazole-5-carboxamide] | < 10 | 0.0001 to 1 |
| Cc1[nH]nc(C(=O)Nc2cnc3[nH]c(-c4ccnc(N5CCN(C)CC5)c4)cc3c2)c1C [P-2069, 4,5-dimethyl-N-[2-[2-(4-methylpiperazin-1-yl)-4-pyridyl]-1H-pyrrolo[2,3-b]pyridin-5-yl]-1H-pyrazole-3-carboxamide] | < 10 | 0.0001 to 1 |
| Cc1n[nH]c(C(=O)Nc2cnc3[nH]c(C4=CCC(N)CC4)cc3c2)c1C (stereo not drawn) [P-2080, N-[2-(4-aminocyclohexen-1-yl)-1H-pyrrolo[2,3-b]pyridin-5-yl]-3,4-dimethyl-1H-pyrazole-5-carboxamide] | < 10 | 0.0001 to 1 |
| Cc1n[nH]c(C(=O)Nc2cnc3[nH]c(C4=CCN(C(=O)C5CC5)C4)cc3c2)c1Cl [P-2060, 4-chloro-N-[2-[1-(cyclopropanecarbonyl)-2,5-dihydropyrrol-3-yl]-1H-pyrrolo[2,3-b]pyridin-5-yl]-3-methyl-1H-pyrazole-5-carboxamide] | < 10 | 0.0001 to 1 |
| Cc1n[nH]c(C(=O)Nc2cnc3[nH]c(-n4cccn4)cc3c2)c1C [P-2112, 3,4-dimethyl-N-(2-pyrazol-1-yl-1H-pyrrolo[2,3-b]pyridin-5-yl)-1H-pyrazole-5-carboxamide] | < 10 | 0.0001 to 1 |
| Cc1n[nH]c(C(=O)Nc2cnc3[nH]c(-c4ccc(C(=O)NC5CC5)cc4)cc3c2)c1C [P-2148, N-[2-[4-(cyclopropylcarbamoyl)phenyl]-1H-pyrrolo[2,3-b]pyridin-5-yl]-3,4-dimethyl-1H-pyrazole-5-carboxamide] | < 10 | 0.0001 to 1 |
| Cc1n[nH]c(C(=O)Nc2cnc3[nH]c(-c4ccc(C#N)c(N5CCOCC5)c4)cc3c2)c1C [P-2081, N-[2-(4-cyano-3-morpholino-phenyl)-1H-pyrrolo[2,3-b]pyridin-5-yl]-3,4-dimethyl-1H-pyrazole-5-carboxamide] | < 10 | 0.0001 to 1 |
| Cc1n[nH]c(C(=O)Nc2cnc3[nH]c(C4=CCN(C(=O)N5CCOCC5)C4)cc3c2)c1Cl [P-2062, 4-chloro-3-methyl-N-[2-[1-(morpholine-4-carbonyl)-2,5-dihydropyrrol-3-yl]-1H-pyrrolo[2,3-b]pyridin-5-yl]-1H-pyrazole-5-carboxamide] | < 10 | 0.0001 to 1 |
| O=C(Nc1cnc2[nH]c(-c3ccccc3)cc2c1)c1[nH]ncc1Br [P-2005, 4-bromo-N-(2-phenyl-1H-pyrrolo[2,3-b]pyridin-5-yl)-1H-pyrazole-5-carboxamide] | < 10 | 0.0001 to 1 |
| Cc1n[nH]c(C(=O)Nc2cnc3[nH]c(-c4cccc(N5CCCC5)c4)cc3c2)c1C [P-2079, 3,4-dimethyl-N-[2-(3-pyrrolidin-1-ylphenyl)-1H-pyrrolo[2,3-b]pyridin-5-yl]-1H-pyrazole-5-carboxamide] | < 10 | 0.0001 to 1 |
| Cc1n[nH]c(C(=O)Nc2cnc3sc(-c4ccccc4)nc3c2)c1C [P-2144, 3,4-dimethyl-N-(2-phenylthiazolo[5,4-b]pyridin-6-yl)-1H-pyrazole-5-carboxamide] | < 10 | 1 to 10 |
| Cc1[nH]nc(C(=O)Nc2cnc3[nH]c(-c4cccc(N5CCOCC5)c4)cc3c2)c1C [P-2070, 4,5-dimethyl-N-[2-(3-morpholinophenyl)-1H-pyrrolo[2,3-b]pyridin-5-yl]-1H-pyrazole-3-carboxamide] | < 10 | 0.0001 to 1 |
| Cc1n[nH]c(C(=O)Nc2cnc3[nH]c(C4=CCN(C(=O)CN5CCOCC5)CC4)cc3c2)c1C [P-2073, 3,4-dimethyl-N-[2-[1-(2-morpholinoacetyl)-3,6-dihydro-2H-pyridin-4-yl]-1H-pyrrolo[2,3-b]pyridin-5-yl]-1H-pyrazole-5-carboxamide] | < 10 | 0.0001 to 1 |
| Cc1n[nH]c(C(=O)Nc2cnc3[nH]c(-c4c(C)noc4C)cc3c2)c1C [P-2065, N-[2-(3,5-dimethylisoxazol-4-yl)-1H-pyrrolo[2,3-b]pyridin-5-yl]-3,4-dimethyl-1H-pyrazole-5-carboxamide] | < 10 | 0.0001 to 1 |
